ChEMBL document CHEMBL1125440, “Synthesis and antiviral activity of acyclic nucleosides with a 3(S),5-dihydroxypentyl or 4(R)-methoxy-3(S),5-dihydroxypentyl side chain” (1992)
≈ marks a conversion by molar mass, not a printed value.

Columns and labels:
E6SM [1] = assay: Minimum cytotoxic concentration (MCC) required to cause a microscopically detectable alteration of normal cell morphology against E6SM cells; assay type: functional; conditions: Homo sapiens
E6SM [2] = assay: (§1) Compounds was evaluated for its inhibitory effect on cytopathogenicity of vesicular stomatitis virus (VSV) in E6SM cells; assay type: functional; conditions: Homo sapiens
E6SM [3] = assay: Minimum inhibitory concentration (MIC) required to reduce 196 strain of HSV-2 induced cytopathogenicity by 50% in E6SM cells; assay type: functional; conditions: Homo sapiens
E6SM [4] = assay: Minimum inhibitory concentration (MIC) required to reduce B2006 strain of TK-HSV-1 induced cytopathogenicity by 50% in E6SM cells; assay type: functional; conditions: Homo sapiens
E6SM [5] = assay: Minimum inhibitory concentration (MIC) required to reduce F strain of HSV-1 induced cytopathogenicity by 50% in E6SM cells; assay type: functional; conditions: Homo sapiens
E6SM [6] = assay: Minimum inhibitory concentration (MIC) required to reduce G strain of HSV-2 induced cytopathogenicity by 50% in E6SM cells; assay type: functional; conditions: Homo sapiens
E6SM [7] = assay: Minimum inhibitory concentration (MIC) required to reduce KOS strain of HSV-1 induced cytopathogenicity by 50% in E6SM cells; assay type: functional; conditions: Homo sapiens
E6SM [8] = assay: Minimum inhibitory concentration (MIC) required to reduce Lyons strain of HSV-2 induced cytopathogenicity by 50% in E6SM cells; assay type: functional; conditions: Homo sapiens
E6SM [9] = assay: Minimum inhibitory concentration (MIC) required to reduce McIntyre strain of HSV-1 induced cytopathogenicity by 50% in E6SM cells; assay type: functional; conditions: Homo sapiens
E6SM [10] = assay: Minimum inhibitory concentration (MIC) required to reduce VMW 1837 strain of TK-HSV-1 induced cytopathogenicity by 50% in E6SM cells; assay type: functional; conditions: Homo sapiens
E6SM [11] = assay: (§2) Compounds was evaluated for its inhibitory effect on cytopathogenicity of vaccinia virus (VV) in E6SM cells; assay type: functional; conditions: Homo sapiens
E6SM [12] = assay: as §1; assay type: functional, Homo sapiens
E6SM [13] = assay: as §2; assay type: functional, Homo sapiens

SMILES | MCC (E6SM [1]) [µg/mL] | MIC (E6SM [2]) [µg/mL] | MIC (E6SM [3]) [µg/mL] | MIC (E6SM [4]) [µg/mL] | MIC (E6SM [5]) [µg/mL] | MIC (E6SM [6]) [µg/mL] | MIC (E6SM [7]) [µg/mL] | MIC (E6SM [8]) [µg/mL] | MIC (E6SM [9]) [µg/mL] | MIC (E6SM [10]) [µg/mL] | MIC (E6SM [11]) [µg/mL] | VSV (E6SM [12]) | VV (E6SM [13])
Nc1nc(O)c2ncn(CC[C@H](O)CCO)c2n1 | > 400 | > 400 | 20 (≈ 79 µM) | > 400 | 0.4 (≈ 1.58 µM) | 4 (≈ 15.8 µM) | 0.4 (≈ 1.58 µM) | 5 (≈ 19.7 µM) | 0.6 (≈ 2.37 µM) | > 400 | > 400 |  | 
Nc1ncnc2c1ncn2C[C@H](O)CO [(S)-DHPA] | > 400 | 70 (≈ 335 µM) | 300 (≈ 1430 µM) | 300 (≈ 1430 µM) | 70 (≈ 335 µM) | 300 (≈ 1430 µM) | 300 (≈ 1430 µM) | 250 (≈ 1190 µM) | 70 (≈ 335 µM) | > 400 | 70 (≈ 335 µM) |  | 
Nc1nc2c(ncn2COCCO)c(=O)[nH]1 [ACYCLOVIR] | > 400 |  | 0.015 (≈ 0.0666 µM) | 70 (≈ 311 µM) | 0.04 (≈ 0.178 µM) | 0.04 (≈ 0.178 µM) | 0.07 (≈ 0.311 µM) | 0.02 (≈ 0.0888 µM) | 0.02 (≈ 0.0888 µM) | 10 (≈ 44.4 µM) |  | >400 | >400
